Results reported in ChEMBL document CHEMBL1201861, “Genomics of Drug Sensitity in Cancer screening data, Wellcome Trust Sanger Institute”.

How the values were obtained:
Assay in all cases: cells
[1] = system: OMC-1; type: functional, cell-based, Homo sapiens; settings: Homo sapiens, OMC-1;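 note: growth inhibition of the OMC-1 cell line, measured by a cell viability assay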
Description: SANGER: Inhibition of human OMC-1 cell growth in a cell viability assay.

[2] = system: SF-268; type: functional, cell-based, Homo sapiens; settings: Homo sapiens, SF-268;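 note: growth inhibition of SF-268 cells determined with a cell viability assay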
Description: SANGER: Inhibition of human SF268 cell growth in a cell viability assay.

[3] = system: ES7; type: functional, cell-based, Homo sapiens; settings: Homo sapiens, ES7;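 note: growth inhibition of cultured human ES7 cells, read out as cell viability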
Description: SANGER: Inhibition of human ES7 cell growth in a cell viability assay.

[4] = system: HT-144; type: functional, cell-based, Homo sapiens; settings: Homo sapiens, HT-144
Description: SANGER: Inhibition of human HT-144 cell growth in a cell viability assay.

[5] = system: COLO-800; type: functional, cell-based, Homo sapiens; settings: Homo sapiens, COLO-800;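 note: growth inhibition of COLO-800 cells, read out with a cell viability assay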
Description: SANGER: Inhibition of human COLO-800 cell growth in a cell viability assay.

[6] = system: NCI-H1304; type: functional, cell-based, Homo sapiens; settings: Homo sapiens, NCI-H1304;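 note: growth inhibition of the cancer cell line, measured in a cell viability assay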
Description: SANGER: Inhibition of human NCI-H1304 cell growth in a cell viability assay.

[7] = system: MMAC-SF; type: functional, cell-based; settings: Homo sapiens;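 note: growth inhibition of human MMAC-SF cells, read out with a cell viability assay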
Description: SANGER: Inhibition of human MMAC-SF cell growth in a cell viability assay.

[8] = system: RCC10RGB; type: functional, cell-based, Homo sapiens; settings: Homo sapiens, RCC10RGB;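 note: growth inhibition of human RCC10RGB cells, read out by a cell viability assay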
Description: SANGER: Inhibition of human RCC10RGB cell growth in a cell viability assay.

[9] = system: EW-13; type: functional, cell-based, Homo sapiens; settings: Homo sapiens, EW-13; read-out: IC50;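 note: growth inhibition of EW-13 cells, read out with a cell viability assay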
Description: SANGER: Inhibition of human EW-13 cell growth in a cell viability assay.

[10] = system: HCE-T; type: functional, cell-based, Homo sapiens; settings: Homo sapiens, HCE-T;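 note: cell viability assay read-out, reporting inhibition of HCE-T cell growth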
Description: SANGER: Inhibition of human HCE-T cell growth in a cell viability assay.

[11] = system: COR-L88; type: functional, cell-based, Homo sapiens; settings: Homo sapiens, COR-L88;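 note: growth inhibition of COR-L88 cells, read out with a cell viability assay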
Description: SANGER: Inhibition of human COR-L88 cell growth in a cell viability assay.

[12] = system: NCI-H747; type: functional, cell-based, Homo sapiens; settings: Homo sapiens, NCI-H747;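 note: growth inhibition of human NCI-H747 cells, read out by a cell viability assay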
Description: SANGER: Inhibition of human NCI-H747 cell growth in a cell viability assay.

[13] = system: NCI-H1838; type: functional, cell-based, Homo sapiens; settings: Homo sapiens, NCI-H1838;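 note: growth inhibition of NCI-H1838 cells, determined with a cell viability readout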
Description: SANGER: Inhibition of human NCI-H1838 cell growth in a cell viability assay.

[14] = system: GI-ME-N; type: functional, cell-based, Homo sapiens; settings: Homo sapiens, GI-ME-N;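 note: growth inhibition of human GI-ME-N cells, read out with a cell viability assay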
Description: SANGER: Inhibition of human GI-ME-N cell growth in a cell viability assay.

[15] = system: MSTO-211H; type: functional, cell-based, Homo sapiens; settings: Homo sapiens, MSTO-211H
Description: SANGER: Inhibition of human MSTO-211H cell growth in a cell viability assay.

[16] = system: HH; type: functional, cell-based, Homo sapiens; settings: Homo sapiens, HH
Description: SANGER: Inhibition of human HH cell growth in a cell viability assay.

[17] = system: LB2241-RCC; type: functional, cell-based, Homo sapiens; settings: Homo sapiens, LB2241-RCC;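 note: cell viability assay measuring how strongly the cultured human renal carcinoma line is prevented from growing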
Description: SANGER: Inhibition of human LB2241-RCC cell growth in a cell viability assay.

[18] = system: SJSA-1; type: functional, cell-based, Homo sapiens; settings: Homo sapiens, SJSA-1;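 note: growth inhibition of human SJSA-1 cells, read out through a cell viability measurement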
Description: SANGER: Inhibition of human SJSA-1 cell growth in a cell viability assay.

[19] = system: CGTH-W-1; type: functional, cell-based, Homo sapiens; settings: Homo sapiens, CGTH-W-1;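 note: growth inhibition of human CGTH-W-1 cells measured by cell viability assay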
Description: SANGER: Inhibition of human CGTH-W-1 cell growth in a cell viability assay.

[20] = system: ALL-PO; type: functional, cell-based, Homo sapiens; settings: Homo sapiens, ALL-PO;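 note: growth inhibition of ALL-PO cells, read out by a cell viability assay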
Description: SANGER: Inhibition of human ALL-PO cell growth in a cell viability assay.

[21] = system: LXF-289 cell line; type: functional, cell-based; settings: Homo sapiens
Description: SANGER: Inhibition of human LXF-289 cell growth in a cell viability assay.

[22] = system: SK-MEL-2; type: functional, cell-based, Homo sapiens; settings: Homo sapiens, SK-MEL-2;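 note: growth inhibition of human SK-MEL-2 cells measured with a cell viability assay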
Description: SANGER: Inhibition of human SK-MEL-2 cell growth in a cell viability assay.

[23] = system: MPP-89; type: functional, cell-based, Homo sapiens; settings: Homo sapiens, MPP-89;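 note: growth inhibition of human MPP-89 cells, read out with a cell viability assay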
Description: SANGER: Inhibition of human MPP-89 cell growth in a cell viability assay.

[24] = system: K562; type: functional, cell-based, Homo sapiens; settings: Homo sapiens, K562
Description: SANGER: Inhibition of human K-562 cell growth in a cell viability assay.

[25] = system: SNU-5; type: functional, cell-based, Homo sapiens; settings: Homo sapiens, SNU-5;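 note: cell viability readout used to measure growth inhibition in human NCI-SNU-5 cells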
Description: SANGER: Inhibition of human NCI-SNU-5 cell growth in a cell viability assay.

[26] = system: SBC-1; type: functional, cell-based, Homo sapiens; settings: Homo sapiens, SBC-1;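 note: cell viability assay measuring growth inhibition of the SBC-1 cell line, IC50 being the concentration that halves growth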
Description: SANGER: Inhibition of human SBC-1 cell growth in a cell viability assay.

[27] = system: NB5; type: functional, cell-based, Homo sapiens; settings: Homo sapiens, NB5;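 note: growth inhibition of NB5 cells, read out as cell viability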
Description: SANGER: Inhibition of human NB5 cell growth in a cell viability assay.

[28] = system: GR-ST; type: functional, cell-based, Homo sapiens; settings: Homo sapiens, GR-ST
Description: SANGER: Inhibition of human GR-ST cell growth in a cell viability assay.

[29] = system: GOTO; type: functional, cell-based, Homo sapiens; settings: Homo sapiens, GOTO;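 note: growth inhibition of GOTO cells, read out by a cell viability assay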
Description: SANGER: Inhibition of human GOTO cell growth in a cell viability assay.

[30] = system: NCI-H23; type: functional, cell-based, Homo sapiens; settings: Homo sapiens, NCI-H23;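 note: cell viability assay measuring growth inhibition of NCI-H23 cells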
Description: SANGER: Inhibition of human NCI-H23 cell growth in a cell viability assay.

[31] = system: COLO-824; type: functional, cell-based, Homo sapiens; settings: Homo sapiens, COLO-824
Description: SANGER: Inhibition of human COLO-824 cell growth in a cell viability assay.

[32] = system: KM-H2; type: functional, cell-based, Homo sapiens; settings: Homo sapiens, KM-H2;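 note: growth inhibition of KM-H2 cells, read out by a cell viability assay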
Description: SANGER: Inhibition of human KM-H2 cell growth in a cell viability assay.

[33] = system: MHH-NB-11; type: functional, cell-based, Homo sapiens; settings: Homo sapiens, MHH-NB-11;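 note: growth inhibition of human MHH-NB-11 cells, read out by a cell viability assay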
Description: SANGER: Inhibition of human MHH-NB-11 cell growth in a cell viability assay.

[34] = system: NCI-H209; type: functional, cell-based, Homo sapiens; settings: Homo sapiens, NCI-H209;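 note: growth inhibition of human NCI-H209 cells, measured by a cell viability assay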
Description: SANGER: Inhibition of human NCI-H209 cell growth in a cell viability assay.

[35] = system: Becker; type: functional, cell-based, Homo sapiens; settings: Homo sapiens, Becker;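 note: growth inhibition of Becker cells, read out with a cell viability assay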
Description: SANGER: Inhibition of human Becker cell growth in a cell viability assay.

[36] = system: HCC2218; type: functional, cell-based, Homo sapiens; settings: Homo sapiens, HCC2218;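 note: cell viability assay read-out, with IC50 given as the concentration that inhibits growth of the cell line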
Description: SANGER: Inhibition of human HCC2218 cell growth in a cell viability assay.

[37] = system: SW872; type: functional, cell-based, Homo sapiens; settings: Homo sapiens, SW872;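 note: growth inhibition of SW872 cells, read out by a viability assay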
Description: SANGER: Inhibition of human SW872 cell growth in a cell viability assay.

[38] = system: MLMA; type: functional, cell-based, Homo sapiens; settings: Homo sapiens, MLMA;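 note: growth inhibition of MLMA cells (human), determined through a cell viability readout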
Description: SANGER: Inhibition of human MLMA cell growth in a cell viability assay.

[39] = system: CW-2; type: functional, cell-based, Homo sapiens; settings: Homo sapiens, CW-2;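 note: growth inhibition of CW-2 cells, read out by a cell viability assay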
Description: SANGER: Inhibition of human CW-2 cell growth in a cell viability assay.

[40] = system: EW-11; type: functional, cell-based, Homo sapiens; settings: Homo sapiens, EW-11;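 note: growth inhibition of human EW-11 cells, measured with a cell viability assay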
Description: SANGER: Inhibition of human EW-11 cell growth in a cell viability assay.

[41] = system: KNS-42; type: functional, cell-based; settings: Homo sapiens;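 note: growth inhibition of KNS-42 cells, read out with a cell viability assay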
Description: SANGER: Inhibition of human KNS-42 cell growth in a cell viability assay.

[42] = system: OS-RC-2; type: functional, cell-based, Homo sapiens; settings: Homo sapiens, OS-RC-2;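 note: growth inhibition of human OS-RC-2 cells, measured by a cell viability assay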
Description: SANGER: Inhibition of human OS-RC-2 cell growth in a cell viability assay.

[43] = system: Lu-65; type: functional, cell-based, Homo sapiens; settings: Homo sapiens, Lu-65;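 note: growth inhibition of Lu-65 cancer cells, read out by a cell viability assay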
Description: SANGER: Inhibition of human LU-65 cell growth in a cell viability assay.

[44] = system: KP-N-YS; type: functional, cell-based, Homo sapiens; settings: Homo sapiens, KP-N-YS;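 note: cell viability assay measuring inhibition of cell line growth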
Description: SANGER: Inhibition of human KP-N-YS cell growth in a cell viability assay.

[45] = system: NCI-H446; type: functional, cell-based, Homo sapiens; settings: Homo sapiens, NCI-H446;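 note: growth inhibition of NCI-H446 cells determined by a cell viability assay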
Description: SANGER: Inhibition of human NCI-H446 cell growth in a cell viability assay.

[46] = system: NH-12; type: functional, cell-based, Homo sapiens; settings: Homo sapiens, NH-12;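 note: growth inhibition of NH-12 cells, read out with a cell viability assay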
Description: SANGER: Inhibition of human NH-12 cell growth in a cell viability assay.

[47] = system: HD-MY-Z; type: functional, cell-based, Homo sapiens; settings: Homo sapiens, HD-MY-Z;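 note: growth inhibition of HD-MY-Z cells, read out with a cell viability assay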
Description: SANGER: Inhibition of human HD-MY-Z cell growth in a cell viability assay.

[48] = system: DB; type: functional, cell-based, Homo sapiens; settings: Homo sapiens, DB
Description: SANGER: Inhibition of human DB cell growth in a cell viability assay.

[49] = system: SNU1; type: functional, cell-based, Homo sapiens; settings: Homo sapiens, SNU1;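 note: growth inhibition of human NCI-SNU-1 cells, measured with a cell viability assay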
Description: SANGER: Inhibition of human NCI-SNU-1 cell growth in a cell viability assay.

C=CC(=O)N1CCCC(Nc2nc(Nc3ccc(N(C)C(=O)CC)cc3)nc3[nH]cnc23)C1 (stereo not drawn)
IC50 [1]: > 10.2 µM | IC50 [2]: > 10.2 µM | IC50 [3]: > 10.2 µM | IC50 [4]: > 10.2 µM | IC50 [5]: > 10.2 µM | IC50 [6]: > 10.2 µM | IC50 [7]: > 10.2 µM | IC50 [8]: > 10.2 µM | IC50 [9]: > 10.2 µM | IC50 [10]: > 10.2 µM | IC50 [11]: > 10.2 µM | IC50 [12]: > 10.2 µM | IC50 [13]: > 10.2 µM | IC50 [14]: > 10.2 µM | IC50 [15]: > 10.2 µM | IC50 [16]: > 10.2 µM | IC50 [17]: > 10.2 µM | IC50 [18]: > 10.2 µM | IC50 [19]: > 10.2 µM | IC50 [20]: > 10.2 µM | IC50 [21]: > 10.2 µM | IC50 [22]: > 10.2 µM | IC50 [23]: > 10.2 µM | IC50 [24]: > 10.2 µM | IC50 [25]: > 10.2 µM | IC50 [26]: 7.97 µM | IC50 [27]: > 10.2 µM | IC50 [28]: > 10.2 µM | IC50 [29]: > 10.2 µM | IC50 [30]: > 10.2 µM | IC50 [31]: > 10.2 µM | IC50 [32]: > 10.2 µM | IC50 [33]: > 10.2 µM | IC50 [34]: > 10.2 µM | IC50 [35]: > 10.2 µM | IC50 [36]: > 10.2 µM | IC50 [37]: > 10.2 µM | IC50 [38]: > 10.2 µM | IC50 [39]: > 10.2 µM | IC50 [40]: > 10.2 µM | IC50 [41]: > 10.2 µM | IC50 [42]: > 10.2 µM | IC50 [43]: > 10.2 µM | IC50 [44]: > 10.2 µM | IC50 [45]: > 10.2 µM | IC50 [46]: > 10.2 µM | IC50 [47]: > 10.2 µM | IC50 [48]: > 10.2 µM | IC50 [49]: > 10.2 µM

COc1ccc(N(C(=O)Oc2c(C)cccc2C)c2ccnc(Nc3ccc(N4CCN(C)CC4)cc3)n2)c(OC)c1
IC50 [1]: > 5.12 µM | IC50 [2]: 2.49 µM | IC50 [3]: > 5.12 µM | IC50 [4]: 1.45 µM | IC50 [5]: > 5.12 µM | IC50 [6]: > 5.12 µM | IC50 [7]: > 5.12 µM | IC50 [8]: 0.426 µM | IC50 [9]: > 5.12 µM | IC50 [10]: > 5.12 µM | IC50 [11]: > 5.12 µM | IC50 [12]: > 5.12 µM | IC50 [13]: > 5.12 µM | IC50 [14]: 3.25 µM | IC50 [15]: > 5.12 µM | IC50 [16]: > 5.12 µM | IC50 [17]: > 5.12 µM | IC50 [18]: > 5.12 µM | IC50 [19]: > 5.12 µM | IC50 [20]: > 5.12 µM | IC50 [21]: 1.27 µM | IC50 [22]: > 5.12 µM | IC50 [23]: 0.0823 µM | IC50 [24]: < 0.02 µM | IC50 [25]: > 5.12 µM | IC50 [26]: > 5.12 µM | IC50 [27]: > 5.12 µM | IC50 [28]: > 5.12 µM | IC50 [29]: > 5.12 µM | IC50 [30]: > 5.12 µM | IC50 [31]: > 5.12 µM | IC50 [32]: > 5.12 µM | IC50 [33]: > 5.12 µM | IC50 [34]: > 5.12 µM | IC50 [35]: 0.0638 µM | IC50 [36]: > 5.12 µM | IC50 [37]: 0.865 µM | IC50 [38]: 1.92 µM | IC50 [39]: > 5.12 µM | IC50 [40]: > 5.12 µM | IC50 [41]: > 5.12 µM | IC50 [42]: 0.35 µM | IC50 [43]: > 5.12 µM | IC50 [44]: 4.92 µM | IC50 [45]: > 5.12 µM | IC50 [46]: > 5.12 µM | IC50 [47]: > 5.12 µM | IC50 [48]: > 5.12 µM | IC50 [49]: > 5.12 µM
